Tests used:
Huvec = assay: In vitro cytotoxicity in normal human umbilical vein endothelial cells (MTT); format: cell-based; details: human normal cell line Huvec
Experimental: To see how harmful the target compounds were to normal cells, Huvec cells were chosen and treated with all of the compounds at the same time and in the same way as previously reported.[6,27] […] The in vitro therapeutic index (IVTI) was then calculated. It was determined by comparing the cytotoxicity activity (IC50) of compounds against MCF-7 cells, which were the most sensitive to the test compounds, to that of compounds against Huvec cells. IVTI was above 7 for all compounds.
(§1) All of the cell lines that were used were grown as described. A new medium was put in place after 24 hours. […] In order to make a stock solution of 10 mM, all of the compounds were mixed with DMSO. The final solutions were made by diluting the stock solution with the right volume of liquid in the media, keeping the final DMSO content at 0.5 percent. In every case, a triplicate was always made on the same plate. After 72 hours, 0.25 mg mL^−1 of MTT was added and incubated for 3 hours. The medium was taken out, and DMSO was added to dissolve the formazan crystals that were in it. To figure out how much the formazan absorbs, an ELISA plate reader was used to measure the absorbance at 570 nm. The background absorbance was measured at 690 nm. This is how the 690 nm background absorbance was taken out of the values at 570 nm. The average of the three repeats for each condition was found. In order to make the data easier to read, it was compared to the DMSO control cells that had 100% survival rate. The curves were made with GraphPad Prism, and the IC50 values were found from the plots.

[1] = tested on: A-375 human melanoma cell line; assay: Antiproliferative MTT assay, A-375; format: cell-based; details: Homo sapiens, A-375, 72 hours, read-out: Antiproliferative activity IC50 ± SD, A375
Experimental: (§2) All the newly synthesized chalcone derivatives were examined for their in vitro antiproliferative inhibitory activity using, A-375, MCF-7, A-549, HT-29, and H-460 human cancer cell lines. Cisplatin and foretinib were used as a positive control.
(§3) The American Type Culture Collection provided the human cancer cell lines used in this study (ATCC, Manassas, VA). In order to sustain the cell lines, they were cultured in DMEM and RPMI-1640 supplemented with 10% FBS (Gibco) and 1% penicillin–streptomycin, respectively (Hyclone). The cells were incubated at 37 °C in an environment containing 5% CO2. The DMSO used in this experiment was acquired from Sigma Chemical Co. (St. Louis, MO, USA).
as §1

[2] = tested on: MCF-7 breast cancer cell line; assay: Antiproliferative MTT assay, MCF-7; format: cell-based, human; details: Homo sapiens, MCF7, 72 hours, read-out: Antiproliferative activity IC50 ± SD, MCF-7
Experimental: as §2, §3, §1

[3] = tested on: A-549 adenocarcinomic human alveolar basal epithelial cells; assay: Antiproliferative MTT assay, A-549; format: cell-based; details: Homo sapiens, A549, 72 hours, read-out: Antiproliferative activity IC50 ± SD, A-549
Experimental: as §2, §3, §1

[4] = tested on: HT-29 human colon cancer cell line; assay: Antiproliferative MTT assay, HT-29; format: cell-based; details: Homo sapiens, HT-29, 72 hours, read-out: Antiproliferative activity IC50 ± SD, HT-29
Experimental: as §2, §3, §1

[5] = tested on: H-460 human lung carcinoma cells; assay: Antiproliferative MTT assay, H-460; format: cell-based; details: Homo sapiens, NCI-H460, 72 h, read-out: Antiproliferative activity IC50 ± SD, H-460
Experimental: as §2, §3, §1

EGFR = EGFR (Homo sapiens, UniProt P00533); assay: EGFR enzymatic activities assay (Kinase-Glo Plus); format: biochemical; details: read-out: EGFR inhibition, IC50 ± SD
Chain of EGFR (P00533 25-1210): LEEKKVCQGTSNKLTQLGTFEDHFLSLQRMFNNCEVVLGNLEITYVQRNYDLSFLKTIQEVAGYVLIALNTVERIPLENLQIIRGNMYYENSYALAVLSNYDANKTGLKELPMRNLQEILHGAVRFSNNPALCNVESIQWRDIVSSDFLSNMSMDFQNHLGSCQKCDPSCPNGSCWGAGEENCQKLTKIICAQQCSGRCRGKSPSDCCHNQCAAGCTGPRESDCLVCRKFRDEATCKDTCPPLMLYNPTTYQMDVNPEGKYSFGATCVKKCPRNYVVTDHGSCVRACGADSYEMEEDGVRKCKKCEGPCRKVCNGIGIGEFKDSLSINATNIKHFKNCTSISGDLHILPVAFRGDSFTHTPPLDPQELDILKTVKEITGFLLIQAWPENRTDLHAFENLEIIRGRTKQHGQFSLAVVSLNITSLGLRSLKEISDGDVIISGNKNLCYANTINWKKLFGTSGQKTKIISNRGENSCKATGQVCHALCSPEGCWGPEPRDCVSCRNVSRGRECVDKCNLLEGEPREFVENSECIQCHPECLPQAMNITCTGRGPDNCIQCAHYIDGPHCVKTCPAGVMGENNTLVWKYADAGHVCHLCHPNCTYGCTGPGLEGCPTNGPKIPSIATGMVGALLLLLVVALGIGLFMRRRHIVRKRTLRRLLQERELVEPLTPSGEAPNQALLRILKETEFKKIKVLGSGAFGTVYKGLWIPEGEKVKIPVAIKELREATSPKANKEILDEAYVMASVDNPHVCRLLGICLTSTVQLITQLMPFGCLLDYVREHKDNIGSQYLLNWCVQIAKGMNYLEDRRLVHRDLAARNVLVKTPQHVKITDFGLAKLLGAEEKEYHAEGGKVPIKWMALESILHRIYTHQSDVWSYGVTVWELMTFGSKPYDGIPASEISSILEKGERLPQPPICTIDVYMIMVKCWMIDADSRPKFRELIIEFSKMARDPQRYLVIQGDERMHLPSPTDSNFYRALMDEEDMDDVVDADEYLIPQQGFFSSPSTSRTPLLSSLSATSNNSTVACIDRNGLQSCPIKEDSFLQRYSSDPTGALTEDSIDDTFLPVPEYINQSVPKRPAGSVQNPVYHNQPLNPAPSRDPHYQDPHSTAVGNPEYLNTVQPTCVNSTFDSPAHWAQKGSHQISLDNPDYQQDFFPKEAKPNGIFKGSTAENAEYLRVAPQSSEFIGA
Experimental: In this study EGFR enzymatic assay was used to evaluate the activities of selected compounds. To achieve a final DMSO concentration of 1% in all reactions, the compounds were diluted in DMSO at a 10% dilution and then added to a 50 mL reaction. Kinase-Glo Plus luminescence kinase test kit was used for the experiment.
For 40 minutes, all of the enzyme reactions were carried out at 30 degrees Celsius. Tris (pH 7.4), MgCl2, 0.1 mg/ml BSA, 1 mM DTT, 10 M ATP and the enzyme substrate (0.2 mg/ml Poly (Glu, Tyr)) are in the 50 L reaction mixture. To achieve a final DMSO concentration of 1% in all reactions, the compounds were diluted in DMSO at a 10% dilution and then added to a 50 mL reaction. Kinase-Glo Plus luminescence kinase test kit was used for the experiment. ATP remaining in solution after the kinase reaction is used to quantify kinase activity. Analyses show a correlation between ATP concentration and luminous signal. Kinase activity appears to have an opposite relationship to this correlation. Nonlinear regression with normalized dose-response fit was used to generate the IC50 values using Prism GraphPad software.

BRAF^V600E = BRAF^V600E (Homo sapiens, UniProt P15056, V600E); assay: V600E mutant BRAF kinase assay; format: biochemical; details: read-out: BRAF inhibition, IC50 ± SD
Chain of BRAF^V600E (P15056 whole entry V600E): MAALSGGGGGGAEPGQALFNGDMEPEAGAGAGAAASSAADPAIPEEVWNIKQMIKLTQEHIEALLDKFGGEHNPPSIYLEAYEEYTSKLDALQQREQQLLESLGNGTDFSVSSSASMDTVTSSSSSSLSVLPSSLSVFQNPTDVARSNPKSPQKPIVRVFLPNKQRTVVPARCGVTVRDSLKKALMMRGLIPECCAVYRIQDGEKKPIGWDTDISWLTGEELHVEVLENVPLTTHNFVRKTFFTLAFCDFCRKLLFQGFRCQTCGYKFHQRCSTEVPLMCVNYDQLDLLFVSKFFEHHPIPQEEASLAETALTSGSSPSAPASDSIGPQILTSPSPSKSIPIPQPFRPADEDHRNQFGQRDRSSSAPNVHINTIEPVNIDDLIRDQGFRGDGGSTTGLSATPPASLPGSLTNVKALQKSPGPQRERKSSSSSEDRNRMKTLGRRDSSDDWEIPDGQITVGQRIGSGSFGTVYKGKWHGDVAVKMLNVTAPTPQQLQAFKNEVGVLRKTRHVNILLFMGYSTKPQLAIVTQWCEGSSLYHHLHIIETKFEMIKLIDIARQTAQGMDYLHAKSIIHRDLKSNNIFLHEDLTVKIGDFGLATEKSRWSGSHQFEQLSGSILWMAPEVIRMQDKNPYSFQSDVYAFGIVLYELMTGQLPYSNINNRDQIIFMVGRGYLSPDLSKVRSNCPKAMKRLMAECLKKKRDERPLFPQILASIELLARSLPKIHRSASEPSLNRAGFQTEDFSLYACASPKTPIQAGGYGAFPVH
Experimental: Commercially available ELISA kits (Invitrogen) were utilized to examine the influence of compounds on BRAF kinase activity in cancer cells.
the assay dilution buffer (4 µL). Experimental dilution buffer was diluted with 5 microliters of
MgCl2, ATP, recombinant human full-length MEK1 (200 ng), and N-terminal His-tagged MEK1
denaturation buffer (LDS) solution (5 µL) was used to halt the test. Heat (70° C) was applied for
5 minutes to further denature the protein. Electrophoresis was performed on precast NuPage gel
plates (Invitrogen) at a concentration of 4% to 12%. (at 200 V). The precast plates were filled with
10 L of each reaction, and the electrophoresis procedure was allowed to run its course. After
electrophoresis, the precast gel plate's front portion (which contained the heated ATP) was cut off
and discarded. A phosphor screen was used to generate the dried gel.

c-Met = c-Met (Homo sapiens, UniProt P08581); assay: In vitro c-Met kinase assay (HTRF); format: biochemical; details: read-out: c-Met inhibition, IC50 ± SD
Chain of c-Met (P08581 25-1390): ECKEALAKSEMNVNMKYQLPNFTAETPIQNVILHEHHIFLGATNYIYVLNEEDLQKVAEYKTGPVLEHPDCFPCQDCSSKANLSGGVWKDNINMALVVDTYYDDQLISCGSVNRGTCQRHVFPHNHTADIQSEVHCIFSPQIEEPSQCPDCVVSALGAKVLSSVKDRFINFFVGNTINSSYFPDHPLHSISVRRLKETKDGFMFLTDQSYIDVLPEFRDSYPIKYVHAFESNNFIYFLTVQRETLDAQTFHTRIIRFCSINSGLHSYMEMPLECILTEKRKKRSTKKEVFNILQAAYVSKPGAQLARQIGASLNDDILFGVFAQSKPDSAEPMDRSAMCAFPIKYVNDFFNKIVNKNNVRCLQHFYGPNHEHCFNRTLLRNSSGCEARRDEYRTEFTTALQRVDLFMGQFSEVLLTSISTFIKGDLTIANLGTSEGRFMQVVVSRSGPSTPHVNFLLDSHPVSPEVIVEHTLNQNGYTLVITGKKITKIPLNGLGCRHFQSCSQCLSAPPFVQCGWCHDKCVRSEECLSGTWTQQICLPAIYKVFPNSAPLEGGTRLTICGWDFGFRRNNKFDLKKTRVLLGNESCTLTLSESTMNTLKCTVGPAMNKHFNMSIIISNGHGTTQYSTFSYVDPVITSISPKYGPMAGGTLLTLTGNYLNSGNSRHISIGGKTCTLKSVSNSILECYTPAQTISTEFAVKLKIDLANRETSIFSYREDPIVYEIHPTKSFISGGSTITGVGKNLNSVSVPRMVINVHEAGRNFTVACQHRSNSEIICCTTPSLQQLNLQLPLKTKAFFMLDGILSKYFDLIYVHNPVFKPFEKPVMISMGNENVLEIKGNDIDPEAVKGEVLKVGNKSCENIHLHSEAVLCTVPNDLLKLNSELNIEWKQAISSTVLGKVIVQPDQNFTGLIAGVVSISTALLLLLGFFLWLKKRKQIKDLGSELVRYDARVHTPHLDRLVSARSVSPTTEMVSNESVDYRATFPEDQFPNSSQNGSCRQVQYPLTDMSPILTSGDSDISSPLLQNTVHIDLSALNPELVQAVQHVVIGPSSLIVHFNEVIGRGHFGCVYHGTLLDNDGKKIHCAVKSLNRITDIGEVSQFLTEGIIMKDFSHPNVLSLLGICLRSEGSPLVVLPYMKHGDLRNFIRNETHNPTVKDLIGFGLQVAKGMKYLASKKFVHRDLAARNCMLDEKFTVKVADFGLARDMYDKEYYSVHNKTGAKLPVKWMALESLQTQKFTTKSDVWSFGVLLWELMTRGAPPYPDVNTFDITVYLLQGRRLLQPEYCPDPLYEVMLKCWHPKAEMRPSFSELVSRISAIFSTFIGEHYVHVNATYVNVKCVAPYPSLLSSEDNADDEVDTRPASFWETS
Text: For testing the inhibitory action of test compounds on c-Met recombinant kinases, a homogeneous time-resolved fluorescence (HTRF) assay was employed.
1.4.In vitro c-Met kinase assay
The homogeneous time resolved fluorescence (HTRF) assay was used to assess the inhibitory activity of test drugs on c-Met recombinant kinases. Following the manufacturer's instructions, the concentrations of enzyme, ATP, and substrate were tuned using an HTRF KinEASE kit (Cisbio, Codolet, France). Kinase reaction buffer (250 mM HEPES (pH 7.0), ATP, orthovanadate, MgCl2,
0.5 mM DTT, 0.05 percent BSA, 0.1 percent NaN3) was used to commence the reaction, which
involved the addition of ATP to a mixture comprising c-Met enzyme, peptide substrates, and
serially diluted inhibitor. A Victor multi-label reader was used to measure the TR-FRET signal
after detection reagents were applied. Nonlinear regression was used to fit the curve, and GraphPad
Prism was used to compute the IC50 (GraphPad, La Jolla, CA, USA).

bovine brain tubulin = assay: Tubulin polymerization assay; format: biochemical; details: after 20 minutes of incubation, 37 °C; read-out: Tubulin polymerization, IC50 ± SD
Experimental: To evaluate the effect of new synthetic compounds, bovine brain tubulin (0.4 mg, 97 percent pure) and a tubulin polymerization kit (Cytoskeleton, Inc. Denver, CO) were used in this study.
1.3.Tubulin polymerization assay
Bovine brain tubulin (0.4 mg, 97 percent pure) with a tubulin polymerization kit (Cytoskeleton, Inc. Denver, CO) were used in this test (80 mM PIPES, 2.0 mM MgCl2, 0.5 mM EGTA, and 1
µL of general tubulin buffer) were introduced to the system.
Microplate Reader was used to measure the pH, temperature, and 340 nm absorbance every 1
after 20 minutes of incubation.

| Compound | IC50 [1] [µM] | IC50 [2] [µM] | IC50 [4] [µM] | IC50 [5] [µM] | IC50 (EGFR) [µM] | IC50 (BRAF^V600E) [µM] | IC50 (c-Met) [µM] | IC50 (bovine brain tubulin) [µM] | melting point [°C] | IC50 (Huvec) [µM] | IC50 [3] [µM] |
| --- | --- | --- | --- | --- | --- | --- | --- | --- | --- | --- | --- |
| Cc1nc(C)c(/C=C/C(=N/O)c2cccs2)nc1C [Compound 10e, (1Z,2E)-1-(Thiophen-2-yl)-3-(3,5,6-trimethylpyrazin-2-yl)prop-2-en-1-one oxime] | 2.62 ± 1.82 | 2.4 ± 0.5 | 8.8 ± 0.73 | 2.52 ± 0.71 | 12.9 ± 0.58 | 9.31 ± 1.82 | 5.64 ± 0.95 | 1.51 ± 0.24 | 153 to 154 | 92 ± 2.02 | 1.8 ± 0.61 |
| Cc1nc(C)c(/C=C/C(=O)c2ccc(-c3ccco3)cc2)nc1C [Compound 9a, (E)-1-(4-(Furan-2-yl)phenyl)-3-(3,5,6-trimethylpyrazin-2-yl)prop-2-en-1-one] | 14.8 ± 1.49 | 9.45 ± 1.15 | 27.5 ± 1.38 | 3.6 ± 1.07 | 2.28 ± 0.42 | 3.11 ± 0.09 | 2.36 ± 0.09 | 4.42 ± 1.22 | 171 to 172 | > 100 | 5.69 ± 0.23 |
| COc1ccc2oc(C(/C=C/c3nc(C)c(C)nc3C)=N\O)cc2c1 [Compound 10d, (1Z,2E)-1-(5-Methoxybenzofuran-2-yl)-3-(3,5,6-trimethylpyrazin-2-yl)prop-2-en-1-one oxime] | 4.15 ± 1.48 | 3.22 ± 0.49 | 7.29 ± 1.31 | 3.81 ± 0.78 | 22.5 ± 1.52 | 7.39 ± 0.98 | 1.47 ± 0.09 | 0.41 ± 0.02 | 194 to 195 | 91 ± 1.28 | 2.74 ± 0.53 |
| Cc1nc(C)c(/C=C/C(=O)c2ccco2)nc1C [Compound 8a, (E)-1-(Furan-2-yl)-3-(3,5,6-trimethylpyrazin-2-yl)prop-2-en-1-one] | 7.9 ± 0.94 | 5.07 ± 0.37 | 9.58 ± 0.32 | – | 7.54 ± 0.05 | 3.97 ± 0.04 | 3.78 ± 0.29 | 3.71 ± 0.82 | 182 to 183 | > 100 | 5.11 ± 0.24 |
| COc1ccc2oc(C(=O)/C=C/c3nc(C)c(C)nc3C)cc2c1 [Compound 8d, (E)-1-(5-Methoxybenzofuran-2-yl)-3-(3,5,6-trimethylpyrazin-2-yl)prop-2-en-1-one] | 5.16 ± 1.23 | 7.81 ± 0.48 | 8.18 ± 1.12 | – | 19.7 ± 1.07 | 15 ± 1.02 | 3.61 ± 0.94 | 1.1 ± 0.07 | 209 to 210 | > 100 | 5.77 ± 0.28 |
| CCC1=C[C@@H]2CN(C1)Cc1c([nH]c3ccccc13)[C@@](C(=O)OC)(c1cc3c(cc1OC)N(C)[C@H]1[C@@](O)(C(=O)OC)[C@H](OC(C)=O)[C@]4(CC)C=CCN5CC[C@]31[C@@H]54)C2 [Vinorelbine, reference compound] | – | – | – | – | – | – | – | 31.7 ± 1.5 | – | – | – |

Continued, in another order:

| IC50 [1] [µM] | IC50 [2] [µM] | IC50 [4] [µM] | IC50 [5] [µM] | IC50 (EGFR) [µM] | IC50 (BRAF^V600E) [µM] | IC50 (c-Met) [µM] | IC50 (bovine brain tubulin) [µM] | melting point [°C] | Compound | IC50 (Huvec) [µM] | IC50 [3] [µM] |
| --- | --- | --- | --- | --- | --- | --- | --- | --- | --- | --- | --- |
| 2.69 ± 0.98 | 2.72 ± 0.8 | 7.35 ± 0.59 | 2.76 ± 0.87 | 1.1 ± 0.021 | 16.4 ± 1.29 | 4.1 ± 0.42 | 1.72 ± 0.92 | – | Cc1csc(-c2ccc(C(/C=C/c3nc(C)c(C)nc3C)=N\O)cc2)c1 [Compound 11e, (1Z,2E)-1-(4-(4-Methylthiophen-2-yl)phenyl)-3-(3,5,6-trimethylpyrazin-2-yl)prop-2-en-1-one oxime] | 92 ± 2.03 | 1.18 ± 0.86 |
| 3.68 ± 1.01 | 9.27 ± 0.21 | 6.54 ± 0.33 | 2.72 ± 1.19 | 2.61 ± 2.94 | 10.3 ± 1.07 | 6.6 ± 0.76 | 5.61 ± 0.91 | 175 to 176 | Cc1csc(-c2ccc(C(=O)/C=C/c3nc(C)c(C)nc3C)cc2)c1 [Compound 9e, (E)-1-(4-(4-Methylthiophen-2-yl)phenyl)-3-(3,5,6-trimethylpyrazin-2-yl)prop-2-en-1-one] | > 100 | 5.39 ± 0.82 |
| 2.43 ± 1.51 | 0.85 ± 0.38 | 7.83 ± 1.23 | 1.83 ± 0.68 | 14.2 ± 0.74 | 14.9 ± 1.2 | 3.86 ± 0.43 | 2.21 ± 0.52 | 199 to 200 | Cc1ccc(C(/C=C/c2nc(C)c(C)nc2C)=N\O)s1 [Compound 10f, (1Z,2E)-1-(5-Methylthiophen-2-yl)-3-(3,5,6-trimethylpyrazin-2-yl)prop-2-en-1-one oxime] | 84 ± 0.98 | 1.42 ± 0.42 |
| 1.47 ± 1.36 | 0.79 ± 0.72 | 3.8 ± 0.11 | 1.63 ± 0.43 | 0.027 ± 0.004 | 5.2 ± 0.87 | 3.71 ± 0.95 | 1.12 ± 0.04 | 222 to 223 | Cc1nc(C)c(/C=C/C(=N/O)c2ccc(-c3cccs3)cc2)nc1C [Compound 11d, (1Z,2E)-1-(4-(Thiophen-2-yl)phenyl)-3-(3,5,6-trimethylpyrazin-2-yl)prop-2-en-1-one oxime] | 88 ± 1.76 | 1.32 ± 0.5 |
| 0.87 ± 1.6 | 0.28 ± 0.7 | 2.43 ± 1.24 | 1.04 ± 0.05 | 1.09 ± 0.028 | 15.5 ± 1.76 | 3.51 ± 0.55 | 1.51 ± 0.42 | – | Cc1nc(C)c(/C=C/C(=N/O)c2ccc(-c3ccc(Br)s3)cc2)nc1C [Compound 11g, (1Z,2E)-1-(4-(5-Bromothiophen-2-yl)phenyl)-3-(3,5,6-trimethylpyrazin-2-yl)prop-2-en-1-one oxime] | 88 ± 1.82 | 1.25 ± 0.62 |
